We go through eight compounds from patent US20260183302A1, “PDK1 REGULATORY COMPOUND AND COMPOSITION CONTAINING THE SAME” (PROVIBIO CO., LTD., priority 2024, published 2026).

Molecules are shown by their SMILES.

The assay concerns T cells isolated from mouse spleens. Kind of assay: T cell proliferation inhibition (CFSE flow cytometry, anti-CD3/anti-CD28 stimulation). Conditions: three days. The format is cell-based, C57BL/6 mice. On the procedure: To verify the T cell proliferation inhibitory effect of the compounds according to the present invention, the following experiment was performed based on flow cytometry analysis using carboxyfluorescein diacetate succinimidyl ester (CFSE), a fluorescent dye that binds to intracellular molecules via covalent bonds.
Spleens were extracted from 7-week-old C57BL/6 mice, ground, and then separated into single cells using a strainer (40 μm pore size, SPL). Red blood cells were removed using ACK (Ammonium-Chloride-Potassium) lysis buffer to isolate white blood cells.
Finally, using a MACS Magnetic Stand and LS column, T cells were isolated from the spleen.
The T cells isolated from the spleen were resuspended in 1 mL of free medium (RPMI-1640+200 U/mL penicillin+200 μg/mL streptomycin), and 0.3 μL of CFSE (10 mM) was added. The mixture was incubated at 37° C. for 5 minutes.
Free medium (10 mL) was added to stop the reaction, and the cells were centrifuged to obtain the cell pellet.
RPMI 1640 medium containing 10% FBS, 100 U/mL penicillin, 100 μg/mL streptomycin, and resuspended the cells. The cells were then seeded into a 96-well plate at a density of 2× 10^5 cells per well and activated with CD3 and CD28 antibodies (0.5 μg/mL each) to activate T cells.
The compound diluted in DMSO was added at concentrations of 10 nM, 100 nM, 1 μM, 10 μM, 30 μM, and 50 μM, with three wells per concentration, and cultured at 37° C. and 5% CO2 for three days. The cells were then analyzed using a FACS Canto instrument.
The proliferation inhibition rate (%) was calculated using the following formula: […]
(Flow cytometry measures light scatter and fluorescence of single cells or particles in a stream.)

Regarding `CC(C)(C)OC(=O)NC1CCN(CCCCCCCCCCCCNC(=O)c2cccnc2N)CC1` [Compound 101, tert-Butyl (1-(12-(2-aminonicotinamido)dodecyl)piperidin-4-yl) carbamate], the “Proliferation inhibition rate (%)” value (concentration 10 nM) is recorded as −0.15%; the “Proliferation inhibition rate (%)” value (concentration 100 nM) is recorded as 100.00%; the “Proliferation inhibition rate (%)” value (concentration 1 μM) was 100.00%; the “Proliferation inhibition rate (%)” value (concentration 10 μM) is given as 100.00%; the “Proliferation inhibition rate (%)” value (concentration 30 μM) stood at 100.00%; the “Proliferation inhibition rate (%)” value (concentration 50 μM) came out at 100.00%.
In the case of `CC(C)N1CCN(CCCCCCCCCCCCNC(=O)c2cccnc2N)CC1` [Compound 104, 2-Amino-N-(12-(4-isopropylpiperazin-1-yl)dodecyl) nicotinamide], the “Proliferation inhibition rate (%)” value by setting is: (concentration 10 nM) 100.00%; (concentration 100 nM) 100.00%; (concentration 1 μM) 100.00%; (concentration 10 μM) 100.00%; (concentration 30 μM) 100.00%; (concentration 50 μM) 100.00%.
For `CC(C)(C)OC(=O)N1CCN(CCCCCCCCCCCCNC(=O)c2cccnc2N)CC1` [Compound 111, tert-butyl-4-(12-(2-aminonicotinamido)dodecyl) piperazine-1-carboxylate], the “Proliferation inhibition rate (%)” value is 0.00% (concentration 10 nM); 100.00% (concentration 100 nM); 100.00% (concentration 1 μM); 100.00% (concentration 10 μM); 100.00% (concentration 30 μM); 100.00% (concentration 50 μM).
For the compound `COC(=O)C1CCN(CCCCCCCCCCCCNC(=O)c2cccnc2N)C1` (stereo not shown) [Compound 116, Methyl-1-(12-(2-aminonicotinamido)dodecyl)pyrrolidine-3-carboxylate], the inhibition at 0.01 µM (Mus musculus, T-cell, 72 h, concentration 10 nM, read-out: Proliferation inhibition rate (%)) was -1.9%. Also, the inhibition at 0.1 µM (Mus musculus, T-cell, 72 h, concentration 100 nM, read-out: Proliferation inhibition rate (%)) came to 26.2%. For the same compound, under “Mus musculus, T-cell, 72 h, concentration 1 μM, read-out: Proliferation inhibition rate (%)”, the inhibition at 1 µM worked out at 100%. The inhibition at 10 µM (Mus musculus, T-cell, 72 h, concentration 10 μM, read-out: Proliferation inhibition rate (%)) is 100%. Besides, the inhibition at 30 µM (Mus musculus, T-cell, 72 h, concentration 30 μM, read-out: Proliferation inhibition rate (%)) came to 100%. In addition, the inhibition at 50 µM (Mus musculus, T-cell, 72 h, concentration 50 μM, read-out: Proliferation inhibition rate (%)) came to 100%.
Regarding `CC(C)(C)OC(=O)N[C@@H]1CCCN(CCCCCCCCCCCCNC(=O)c2cccnc2N)C1` [Compound 117, tert-butyl-(R)-(1-(12-(2-aminonicotinamido)dodecyl)piperidin-3-yl) carbamate], the “Proliferation inhibition rate (%)” value was found to be 100.00% (concentration 100 nM); 100.00% (concentration 1 μM); 100.00% (concentration 10 μM); 100.00% (concentration 30 μM); 100.00% (concentration 50 μM).
For the compound `Nc1ncccc1C(=O)NCCCCCCCCCCCCN1CCOC1=O` [Compound 127, 2-amino-N-(12-(2-oxooxazolidin-3-yl)dodecyl) nicotinamide], the “Proliferation inhibition rate (%)” value by setting is: (concentration 10 μM) 100.00%; (concentration 30 μM) 100.00%; (concentration 50 μM) 100.00%.
`Nc1ncccc1C(=O)NCCCCCCCCCCCCNC1CCOC1` (stereo not shown) [Compound 128, 2-amino-N-(12-((tetrahydrofuran-3-yl)amino)dodecyl) nicotinamide]: the “Proliferation inhibition rate (%)” value is listed as 100.00% (concentration 100 nM); 100.00% (concentration 1 μM); 100.00% (concentration 10 μM); 100.00% (concentration 30 μM); 100.00% (concentration 50 μM).
Take `CN1CCN(CCCCCCCCCCCCNC(=O)c2ccccc2C(=O)NC2CCCCC2)CC1` [Compound 191, N1-Cyclohexyl-N2-(12-(4-methylpiperazin-1-yl)dodecyl) phthalamide]: the “Proliferation inhibition rate (%)” value is, setting by setting: (concentration 10 nM) 0.00%; (concentration 100 nM) 0.00%; (concentration 1 μM) 7.39%; (concentration 10 μM) 93.26%; (concentration 30 μM) 100.00%; (concentration 50 μM) 100.00%.
